Laboratory results: US12590091B2, “1H-pyrrolo[3,2-C]pyridine and 1H-pyrrolo[2,3-C]pyridine derivatives as TLR9 inhibitors for the treatment of fibrosis” (BRISTOL-MYERS SQUIBB COMPANY, priority 2020, dated 2026)

molecular target: T1, human TLR8 (Homo sapiens, UniProt Q9NR97); assay: TLR8 inhibition reporter assay (HEK-Blue cells, SEAP reporter); format: cell-based; settings: HEK-Blue cells overexpressing human TLR8, stimulated with R848 15.9 μM, 22 hour incubation
T1 construct: host or cells: HEK-Blue cells
T1 sequence (Q9NR97 27-1041): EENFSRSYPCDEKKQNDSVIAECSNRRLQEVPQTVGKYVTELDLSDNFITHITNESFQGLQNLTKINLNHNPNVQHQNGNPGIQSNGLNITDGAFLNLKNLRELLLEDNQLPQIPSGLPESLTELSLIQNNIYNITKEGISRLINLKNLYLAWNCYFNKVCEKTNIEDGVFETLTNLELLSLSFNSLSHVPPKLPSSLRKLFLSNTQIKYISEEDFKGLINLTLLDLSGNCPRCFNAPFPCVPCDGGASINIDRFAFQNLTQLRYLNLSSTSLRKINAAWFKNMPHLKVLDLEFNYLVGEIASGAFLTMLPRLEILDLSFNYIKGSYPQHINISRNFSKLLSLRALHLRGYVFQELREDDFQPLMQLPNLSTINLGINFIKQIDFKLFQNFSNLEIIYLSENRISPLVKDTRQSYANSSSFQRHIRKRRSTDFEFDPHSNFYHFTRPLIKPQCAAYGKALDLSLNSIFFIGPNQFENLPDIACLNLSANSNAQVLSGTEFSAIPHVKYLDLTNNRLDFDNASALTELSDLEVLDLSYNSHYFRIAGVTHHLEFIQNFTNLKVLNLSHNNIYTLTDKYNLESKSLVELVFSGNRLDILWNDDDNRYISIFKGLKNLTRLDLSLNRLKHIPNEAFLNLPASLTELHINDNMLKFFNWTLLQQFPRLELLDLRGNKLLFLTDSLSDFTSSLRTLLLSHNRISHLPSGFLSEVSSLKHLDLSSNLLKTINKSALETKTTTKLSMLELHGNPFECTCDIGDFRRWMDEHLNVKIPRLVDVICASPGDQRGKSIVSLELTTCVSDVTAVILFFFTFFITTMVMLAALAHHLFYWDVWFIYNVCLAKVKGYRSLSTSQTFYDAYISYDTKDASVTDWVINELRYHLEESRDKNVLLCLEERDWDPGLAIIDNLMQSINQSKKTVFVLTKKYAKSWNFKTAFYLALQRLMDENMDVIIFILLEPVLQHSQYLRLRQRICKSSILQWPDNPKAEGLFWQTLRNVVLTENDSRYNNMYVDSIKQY
Summary of the method: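 Dose–response from 0.05 nM to 50 μM was run in HEK-Blue human TLR7, TLR8 and TLR9 reporter cells. After 30 min at room temperature with compound, ligand was added (TLR7 gardiquimod 7.5 μM; TLR8 R848 15.9 μM; TLR9 ODN2006 5 nM) and SEAP measured next day, at 22 h.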

Row | Structure (SMILES) | IC50 [µM]
1 | COc1ccc(-c2cc3cnc(C4CCN(C5CCN(C(=O)c6ccccc6)CC5)CC4)cc3n2C)cc1OC [Example 26, (4-(2-(3,4-dimethoxyphenyl)-1-methyl-1H-pyrrolo[3,2-c]pyridin-6-yl)-[1,4′-bipiperidin]-1′-yl)(phenyl)methanone] | 1.2
2 | CC(C)(O)CCN1CCN(Cc2ccc(-c3cc4c(cn3)cc(-c3ccc(S(C)(=O)=O)cc3)n4C3CC3)cc2)CC1 [Example 129, 4-(4-(4-(1-cyclopropyl-2-(4-(methylsulfonyl)phenyl)-1H-pyrrolo[3,2-c]pyridin-6-yl)benzyl)piperazin-1-yl)-2-methylbutan-2-ol] | 5.6
3 | Cc1nc(-c2ccc(CN3CCN(CCC(C)(C)O)CC3)cc2)cc2c1cc(-c1ccc(S(C)(=O)=O)cc1)n2C1CC1 [Example 116, 4-[4-[[4-[1-cyclopropyl-4-methyl-2-(4-methylsulfonylphenyl)pyrrolo[3,2-c]pyridin-6-yl]phenyl]methyl]piperazin-1-yl]-2-methyl-butan-2-ol] | 19
4 | Cc1nc(-c2ccc(C3(O)CCN(C(C)(C)C)CC3)c(F)c2)cc2c1cc(-c1ccc(S(C)(=O)=O)cc1)n2C [Example 104, 1-(tert-butyl)-4-(4-(1,4-dimethyl-2-(4-(methylsulfonyl)phenyl)-1H-pyrrolo[3,2-c]pyridin-6-yl)-2-fluorophenyl)piperidin-4-ol] | 2.1
5 | Cc1nc(-c2ccc(CN3CCN(CC(C)(C)O)CC3)cc2)cc2c1cc(-c1ccc(S(C)(=O)=O)cc1)n2C1CC1 [Example 123, 1-(4-(4-(1-cyclopropyl-4-methyl-2-(4-(methylsulfonyl)phenyl)-1H-pyrrolo[3,2-c]pyridin-6-yl)benzyl)piperazin-1-yl)-2-methylpropan-2-ol] | 17.6
6 | COc1ccc(-c2c(C)n(C)c3cnc(C4CCN(C5CCN(C(=O)c6ccccc6)CC5)CC4)cc23)cc1OC [Example 19, (4-(3-(3,4-dimethoxyphenyl)-1,2-dimethyl-1H-pyrrolo[2,3-c]pyridin-5-yl)-[1,4′-bipiperidin]-1′-yl)(phenyl)methanone] | > 50
7 | Cc1nc(-c2ccc(C3(O)CC4CCC(C3)N4C(C)C)c(F)c2)cc2c1cc(-c1ccc(S(C)(=O)=O)cc1)n2C [Example 100, (1R,3r,5S)-3-(4-(1,4-dimethyl-2-(4-(methylsulfonyl)phenyl)-1H-pyrrolo[3,2-c]pyridin-6-yl)-2-fluorophenyl)-8-isopropyl-8-azabicyclo[3.2.1]octan-3-ol] | 1.3
8 | COc1ccc(-c2c(C)n(C)c3cnc(-c4ccc(N5CCN(C(C)C)CC5)cc4)cc23)cc1OC [Example 32, 3-(3,4-dimethoxyphenyl)-5-(4-(4-isopropylpiperazin-1-yl)phenyl)-1,2-dimethyl-1H-pyrrolo[2,3-c]pyridine] | > 50
9 | COc1ccc(-c2cc3cnc(-c4ccc(N5CCN(C)CC5)cc4)cc3n2C)cc1OC [Example 27, 2-(3,4-dimethoxyphenyl)-1-methyl-6-(4-(4-methylpiperazin-1-yl)phenyl)-1H-pyrrolo[3,2-c]pyridine] | 1.5
10 | Cc1nc(-c2cc(F)c(N3CCNCC3)cc2F)cc2c1cc(-c1ccc(S(C)(=O)=O)cc1)n2C [Example 43, 6-(2,5-Difluoro-4-(piperazin-1-yl)phenyl)-1,4-dimethyl-2-(4-(methylsulfonyl)phenyl)-1H-pyrrolo[3,2-c]pyridine] | 2.7
11 | Cc1nc(-c2ccc(CN3CCN(CC(C)C)CC3)cc2)cc2c1cc(-c1ccc(S(C)(=O)=O)cc1)n2C [Example 57, 6-(4-((4-isobutylpiperazin-1-yl)methyl)phenyl)-1,4-dimethyl-2-(4-(methylsulfonyl)phenyl)-1H-pyrrolo[3,2-c]pyridine] | 7.5
12 | COCCN1C2CCC1CN(c1ccc(-c3cc4c(cc(-c5ccc(S(C)(=O)=O)cc5)n4C)c(C)n3)cc1)C2 [Example 74, 6-(4-(8-(2-methoxyethyl)-3,8-diazabicyclo[3.2.1]octan-3-yl)phenyl)-1,4-dimethyl-2-(4-(methylsulfonyl)phenyl)-1H-pyrrolo[3,2-c]pyridine] | 19.4
13 | COc1ccc(-c2c(C)[nH]c3cnc(C4CCN(C5CCN(C(=O)OCc6ccccc6)CC5)CC4)cc23)cc1OC [Example 4, Benzyl 4-(3-(3,4-dimethoxyphenyl)-2-methyl-1H-pyrrolo[2,3-c]pyridin-5-yl)-[1,4′-bipiperidine]-1′-carboxylate] | 23.5
14 | COc1ccc(-c2cc3cnc(C4CCN(Cc5ccc(C(F)(F)F)nc5)CC4)cc3n2C)cc1OC [Example 28, 2-(3,4-dimethoxyphenyl)-1-methyl-6-(1-((6-(trifluoromethyl)pyridin-3-yl)methyl)piperidin-4-yl)-1H-pyrrolo[3,2-c]pyridine] | 20.5
15 | COc1ccc(-c2c(C)n(C)c3cnc(-c4ccc(N5CCN(CCC(C)(C)O)CC5)cc4)cc23)cc1OC [Example 33, 4-(4-(4-(3-(3,4-dimethoxyphenyl)-1,2-dimethyl-1H-pyrrolo[2,3-c]pyridin-5-yl)phenyl)piperazin-1-yl)-2-methylbutan-2-ol] | > 50
16 | Cc1nc(-c2ccc(N3CCN(C4CCOC4)CC3)c(F)c2)cc2c1cc(-c1ccc(S(C)(=O)=O)cc1)n2C (centres unmarked) [Example 70, 6-(3-fluoro-4-(4-(tetrahydrofuran-3-yl)piperazin-1-yl)phenyl)-1,4-dimethyl-2-(4-(methylsulfonyl)phenyl)-1H-pyrrolo[3,2-c]pyridine] | > 25
17 | COc1ccc(-c2cc3cnc(-c4ccc(N5CCN(C(C)C)CC5)cc4)cc3n2C)cc1OC [Example 24, 2-(3,4-dimethoxyphenyl)-6-(4-(4-isopropylpiperazin-1-yl)phenyl)-1-methyl-1H-pyrrolo[3,2-c]pyridine] | 3.8
18 | COc1ccc(-c2c(C)[nH]c3cnc(C4CCN(C(=O)CN5CCCCC5)CC4)cc23)cc1OC [Example 16, 1-(4-(3-(3,4-dimethoxyphenyl)-2-methyl-1H-pyrrolo[2,3-c]pyridin-5-yl)piperidin-1-yl)-2-(piperidin-1-yl)ethan-1-one] | 47.9
19 | Cc1nc(-c2ccc(C3(O)CC4CCC(C3)N4C)c(F)c2)cc2c1cc(-c1ccc(S(C)(=O)=O)cc1)n2C [Example 102, (1R,3r,5S)-3-(4-(1,4-dimethyl-2-(4-(methylsulfonyl)phenyl)-1H-pyrrolo[3,2-c]pyridin-6-yl)-2-fluorophenyl)-8-methyl-8-azabicyclo[3.2.1]octan-3-ol] | 1
20 | Cc1nc(-c2ccc(CN3CCN(CC(C)(C)O)CC3)cc2)cc2c1cc(-c1ccc(S(C)(=O)=O)cc1)n2C [Example 44, 1-(4-(4-(1,4-Dimethyl-2-(4-(methylsulfonyl)phenyl)-1H-pyrrolo[3,2-c]pyridin-6-yl)benzyl)piperazin-1-yl)-2-methylpropan-2-ol] | 1.2
21 | COc1ccc(-c2cc3cnc(-c4ccc(N5CCN(CC6CC6)CC5)cc4)cc3n2C)cc1OC [Example 9, 6-(4-(4-(Cyclopropylmethyl)piperazin-1-yl)phenyl)-2-(3,4-dimethoxyphenyl)-1-methyl-1H-pyrrolo[3,2-c]pyridine] | 1.5
22 | Cc1nc(-c2cc(F)c(N3CC4CCC(C3)N4CCCO)cc2F)cc2c1cc(-c1ccc(S(C)(=O)=O)cc1)n2C [Example 79, 3-(3-(4-(1,4-dimethyl-2-(4-(methylsulfonyl)phenyl)-1H-pyrrolo[3,2-c]pyridin-6-yl)-2,5-difluorophenyl)-3,8-diazabicyclo[3.2.1]octan-8-yl) propan-1-ol] | 9.5
23 | Cc1nc(-c2ccc(CN3CCN(CC(C)(C)O)CC3)cc2)cc2c1cc(-c1ccc(S(C)(=O)=O)cc1)n2C(F)F [Example 124, 1-(4-(4-(1-(difluoromethyl)-4-methyl-2-(4-(methylsulfonyl)phenyl)-1H-pyrrolo[3,2-c]pyridin-6-yl)benzyl)piperazin-1-yl)-2-methylpropan-2-ol] | > 50
